Molecular target: TNFα (Homo sapiens (Human), UniProt P01375)
Assay: TNF induced HEK-Blue assay
Format: cell-based
Settings: TNFα 0.5 ng/ml; HEK-Blue-CD40L cells, NF-κB-driven secreted alkaline phosphatase reporter; 18 h
Protocol: Test compounds serially diluted in DMSO were plated in an assay plate (Labcyte, Cat. #LP-0200) at final concentrations ranging from 0.004 μM to 25 μM. TNFα (final concentration 0.5 ng/ml) or CD40L (final concentration 30 ng/ml) in assay buffer [DMEM, 4.5 g/l glucose (Gibco, Cat. 21063-029), 10% FBS (Sigma, F4135), 1% Penicillin-Streptomycin (Gibco, Cat. 15140-122), 1% Anti-Anti (Gibco, Cat. 15240-112) and 2 mM L-glutamine (Gibco, Cat. 25030-081)] was then added to the assay plate. After a 30 minute pre-incubation at 37° C. and 5% CO2, HEK-Blue-CD40L cells (InvivoGen, Cat. Code hkb-cd40) containing a NF-κB-driven secreted alkaline phosphatase reporter gene were seeded into the assay plate at a density of 20,000 cells per well. This plate was then incubated for 18 h at 37° C. and 5% CO2. Secreted alkaline phosphatase expression was measured using QUANTI-Blue (InvivoGen, Cat. Code rep-qb1) according to manufacturer's specifications and the assay plate was read on a PerkinElmer Envision at 620 nm.
Inhibition data for the test compound over a range of concentrations was plotted as percentage inhibition of the test compound (100%=maximum inhibition). IC50 values were determined after correcting for background [(sample read−mean of low control)/(mean of high control−mean of low control)] where by the low control is DMSO without stimulation and high control is DMSO with stimulation. The IC50 is defined as the concentration of test compound which produces 50% inhibition and was quantified using the 4 parameter logistic equation to fit the data.
Table 5 lists the IC50 values measured in the TNF induced HEK-Blue assay for Examples 1 to 40 of this invention.

Chain of TNFα (P01375 77-233): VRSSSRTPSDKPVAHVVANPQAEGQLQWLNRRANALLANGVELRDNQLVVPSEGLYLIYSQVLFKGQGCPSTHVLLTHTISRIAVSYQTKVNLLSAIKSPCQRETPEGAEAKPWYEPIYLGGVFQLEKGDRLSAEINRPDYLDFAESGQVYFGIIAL

| SMILES | IC50 |
| --- | --- |
| CC(C)(O)c1ncc(-c2ccc3nc4n(c3n2)C(c2ccccc2OC(F)F)CC4)cn1 (racemic) [Example 27 (rac), 2-(5-(8-(2-(difluoromethoxy)phenyl)-7,8-dihydro-6H-pyrrolo[2′,1′:2,3]imidazo[4,5-b]pyridin-2-yl)pyrimidin-2-yl)propan-2-ol] | < 1 µM |
| FC(F)Oc1ccccc1C1CCc2nc3ccc(-c4cnc(N5CCOCC5)nc4)nc3n21 (racemic) [Example 28 (rac), 4-(5-(8-(2-(difluoromethoxy)phenyl)-7,8-dihydro-6H-pyrrolo[2′,1′:2,3]imidazo[4,5-b]pyridin-2-yl)pyrimidin-2-yl)morpholine] | < 1 µM |
| CC(C)(O)c1ccc(-c2ccc3nc4n(c3n2)C(c2c(F)cccc2C(F)(F)F)CC4)cc1 (racemic) [Example 32 (e2), 2-(4-(8-(2-fluoro-6-(trifluoromethyl)phenyl)-7,8-dihydro-6H-pyrrolo[2′,1′:2,3]imidazo[4,5-b]pyridin-2-yl)phenyl)propan-2-ol] | < 1 µM |
| CC(C)(O)c1ccc(-c2ccc3nc4n(c3n2)C(c2cc(F)ccc2C(F)(F)F)CC4)cc1 (racemic) [Example 34 (rac), 2-(4-(8-(5-fluoro-2-(trifluoromethyl)phenyl)-7,8-dihydro-6H-pyrrolo[2′,1′:2,3]imidazo[4,5-b]pyridin-2-yl)phenyl)propan-2-ol] | < 1 µM |
| CC(C)(O)c1ccc(-c2ccc3nc4n(c3n2)C(c2ccccc2C(F)(F)F)CC4O)cc1 (single isomer, unassigned) [Example 1 (e1), 2-(4-(2-Hydroxypropan-2-yl)phenyl)-8-(2-(trifluoromethyl)phenyl)-7,8-dihydro-6H-pyrrolo[2′,1′:2,3]imidazo[4,5-b]pyridin-6-ol] | < 1 µM |
| CC(C)(O)c1ccc(-c2ccc3nc4n(c3n2)C(c2ccccc2C(F)(F)F)CC4O)cc1 (single isomer, unassigned) [Example 1 (e2), 2-(4-(2-Hydroxypropan-2-yl)phenyl)-8-(2-(trifluoromethyl)phenyl)-7,8-dihydro-6H-pyrrolo[2′,1′:2,3]imidazo[4,5-b]pyridin-6-ol] | 1 to 10 µM |

Now from value to molecule:

| IC50 | SMILES |
| --- | --- |
| < 1 µM | CC(C)(O)c1ccc(-c2ccc3nc4n(c3n2)C(c2ccccc2C(F)(F)F)CC4)cc1 (racemic) [Example 25 (rac), 2-(4-(8-(2-(Trifluoromethyl)phenyl)-7,8-dihydro-6H-pyrrolo[2′,1′:2,3]imidazo[4,5-b]pyridin-2-yl)phenyl)propan-2-ol] |
| < 1 µM | CC(C)(O)c1ccc(-c2ccc3nc4n(c3n2)C(c2ccccc2OC(F)F)CC4)cc1 (racemic) [Example 26 (rac), 2-(4-(8-(2-(difluoromethoxy)phenyl)-7,8-dihydro-6H-pyrrolo[2′,1′:2,3]imidazo[4,5-b]pyridin-2-yl)phenyl)propan-2-ol] |
| 1 to 10 µM | COc1ccc(-c2ccc3nc4n(c3n2)C(c2ccccc2OC(F)F)CC4)cn1 (racemic) [Example 29 (rac), 8-(2-(difluoromethoxy)phenyl)-2-(6-methoxypyridin-3-yl)-7,8-dihydro-6H-pyrrolo[2′,1′:2,3]imidazo[4,5-b]pyridine] |
| 1 to 10 µM | Cn1cc(-c2ccc3nc4n(c3n2)C(c2ccccc2OC(F)F)CC4)cn1 (racemic) [Example 30 (rac), 8-(2-(difluoromethoxy)phenyl)-2-(1-methyl-1H-pyrazol-4-yl)-7,8-dihydro-6H-pyrrolo[2′,1′:2,3]imidazo[4,5-b]pyridine] |
| < 1 µM | CC(C)(O)c1ccc(-c2ccc3nc4n(c3n2)C(c2c(F)cccc2C(F)(F)F)CC4)cc1 (racemic) [Example 32 (rac), 2-(4-(8-(2-fluoro-6-(trifluoromethyl)phenyl)-7,8-dihydro-6H-pyrrolo[2′,1′:2,3]imidazo[4,5-b]pyridin-2-yl)phenyl)propan-2-ol] |
| 1 to 10 µM | COc1ccccc1C1CCc2nc3ccc(-c4cnc(N5CCN(CC(=O)O)CC5)nc4)nc3n21 (racemic) [Example 35 (rac), 2-(4-(5-(8-(2-methoxyphenyl)-7,8-dihydro-6H-pyrrolo[2′,1′:2,3]imidazo[4,5-b]pyridin-2-yl)pyrimidin-2-yl)piperazin-1-yl)acetic acid] |

From US10189840B2, “Substituted tricyclic heterocyclic compounds” (BRISTOL-MYERS SQUIBB COMPANY, priority 2015, dated 2019)
